These results are taken from patent EP1614683B1, “Indazole compounds and pharmaceutical compositions for inhibiting protein kinases, and methods for their use” (priority 1999, dated 2001).

Values joined by “and” are separate entries in the source; they are usually repeats but may differ in a detail not shown here. Equal values may be shown once. Read-outs that look alike come from different tables or passages of the source.

Data set [1] relates to VEGF dependent retinal neovascularization. The data set can be described thus: Neonatal rat model of retinopathy of prematurity. Format: in vivo. As to conditions: Model ROP. Here is the method: A second model of VEGF dependent retinal neovascularization was employed to evaluate the activities of this series of compounds. […] The animals are exposed for 24 hours to a concentration of 50% oxygen followed by 24 hours at a concentration of 10% oxygen. This alternating cycle of hyperoxia followed by hypoxia is repeated 7 times after which the animals are removed to room air (P14). Compounds are administered via intravitreal injection upon removal to room air and the animals are sacrificed 6 days later (P20). The isolated retinas are then isolated, stained mounted and analyzed as detail above in the development model. The effectiveness was also graded as is described for the development model.

Another data set deals with human FGF-R1 (Homo sapiens, UniProt P11362, C488A/C584S/L457V). The data set can be described thus: FGF-R spectrophotometric assay. Format: biochemical. The method, then: The spectrophotometric assay was carried out as described above for VEGF-R2, except for the following changes in concentration: FGF-R = 50 nM, ATP = 2 mM, and poly(E4Y1) =15 mM.
Sequence of human FGF-R1 (P11362 456-766 L457V/C488A/C584S): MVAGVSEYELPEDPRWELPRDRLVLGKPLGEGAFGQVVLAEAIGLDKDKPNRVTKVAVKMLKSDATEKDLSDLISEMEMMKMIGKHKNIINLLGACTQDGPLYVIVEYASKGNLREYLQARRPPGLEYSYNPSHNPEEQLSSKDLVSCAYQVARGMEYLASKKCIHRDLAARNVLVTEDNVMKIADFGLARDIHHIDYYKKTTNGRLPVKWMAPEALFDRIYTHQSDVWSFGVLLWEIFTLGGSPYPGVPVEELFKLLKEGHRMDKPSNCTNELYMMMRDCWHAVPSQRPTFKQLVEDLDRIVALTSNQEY
Another data set has as its target LCK tyrosine kinase (Homo sapiens, UniProt P06239, C224D/P223M). The data set can be described thus: LCK spectrophotometric assay. Format: biochemical. The method, then:
The spectrophotometric assay was carried out as described above for VEGF-R2, except for the following changes in concentration: LCK = 60 nM, MgCl2 = 0 mM, poly(E4Y1) = 20 mM.

In data set [2] the test system is human umbilical vein endothelial cells (HUVEC). The data set can be described thus: HUVEC proliferation assay (VEGF-stimulated, MTT). Format: cell-based. As to conditions: Homo sapiens, HUVEC, Table 1.
Data set [3] deals with T1, phosphorylated Tie-2 (aa 775-1122) (Homo sapiens, UniProt Q02763).
T1 construct: 4 to 12 nM phosphorylated Tie-2 (aa 775-1122); made in house; host or cells: insect cells
T1 sequence (Q02763 775-1122): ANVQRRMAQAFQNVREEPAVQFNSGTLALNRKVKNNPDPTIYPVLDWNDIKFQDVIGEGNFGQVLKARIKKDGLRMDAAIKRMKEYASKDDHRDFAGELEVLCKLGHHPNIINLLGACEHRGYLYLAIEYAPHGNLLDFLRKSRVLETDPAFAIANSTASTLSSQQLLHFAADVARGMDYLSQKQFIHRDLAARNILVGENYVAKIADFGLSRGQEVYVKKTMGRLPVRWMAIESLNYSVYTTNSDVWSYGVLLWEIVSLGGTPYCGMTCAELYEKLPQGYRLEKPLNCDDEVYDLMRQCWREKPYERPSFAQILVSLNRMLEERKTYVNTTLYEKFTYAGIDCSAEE
The data set can be described thus: TIE-2 spectrophotometric assay. Format: biochemical. As to conditions: read-out: % Inhibition @ 1 µM Tie2-P. The method, then: This construct also carries a R774M mutation, which serves as the initiating methionine residue in translation.
The kinase-catalyzed production of ADP from ATP that accompanies phosphoryl transfer to the random copolymer poly(Glu4 Tyr) was coupled to the oxidation of NADH through the activities of pyruvate kinase (PK) and lactate dehydrogenase (LDH). NADH conversion to NAD* was monitored by the decrease in absorbance at 340 nm (ε = 6.22 cm^-1mM^-1) using a Beckman DU650 spectrophotometer. Typical reaction solutions contained 1 mM phosphoenolpyruvate, 0.24 mM NADH, 40 mM MgCl2, 5 mM DTT, 2.9 mg/mL poly(Glu4Tyr), 0.5 mM ATP, 15 units/mL PK, 15 units/mL LDH in 100 mM HEPES, pH 7.5. […]

A further data set can be described thus: in vivo. As to conditions: mouse, plasma, pH 2.3.
The nature of another data set: in vitro. In kind it is in vitro ADME, human. As to conditions: 2 h. The procedure, abridged:
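HLM diluted to 5 mg/mL in 100 mM KPO4, preincubated 10 min at 37 °C with NADPH-regenerating system. Compound (5 µM final) incubated at 37 °C in triplicate, sampled at 0 and 2 h into ice-cold acetonitrile, then LC-MS analysis.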

The target of a further data set is T2, human CHK1 (FL-CHK1) (Homo sapiens, UniProt O14757).
T2 construct: C-terminally His-tagged full-length human CHK1 (FL-CHK1) was expressed using the baculovirus/insect cell system; made in house; host or cells: baculovirus/insect cell system
T2 sequence (O14757 1-476): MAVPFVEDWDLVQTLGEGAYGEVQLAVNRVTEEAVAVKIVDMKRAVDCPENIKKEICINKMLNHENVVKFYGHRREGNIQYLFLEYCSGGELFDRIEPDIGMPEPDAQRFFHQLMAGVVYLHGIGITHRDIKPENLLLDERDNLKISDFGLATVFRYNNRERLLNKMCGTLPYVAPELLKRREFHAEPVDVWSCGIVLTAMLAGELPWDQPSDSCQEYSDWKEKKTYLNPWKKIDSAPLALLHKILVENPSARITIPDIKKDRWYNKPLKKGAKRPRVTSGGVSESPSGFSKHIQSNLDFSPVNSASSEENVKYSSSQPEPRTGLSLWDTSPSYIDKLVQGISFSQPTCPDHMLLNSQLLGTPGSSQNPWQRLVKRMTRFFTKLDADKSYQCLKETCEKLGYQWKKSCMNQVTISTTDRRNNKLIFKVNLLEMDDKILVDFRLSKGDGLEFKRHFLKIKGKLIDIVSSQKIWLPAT
The data set can be described thus: CHK1 coupled spectrophotometric assay. Format: biochemical. The conditions noted are these: Table 1; read-out: CHK -1* (Ki). An excerpt: CHK1 Construct for Assay: C-terminally His-tagged full-length human CHK1 (FL-CHK1) was expressed using the baculovirus/insect cell system. […] The protein was purified by conventional chromatographic techniques.
The production of ADP from ATP that accompanies phosphoryl transfer to the synthetic substrate peptide Syntide-2 ([…]) was coupled to oxidation of NADH using phosphoenolpyruvate (PEP) through the actions of pyruvate kinase (PK) and lactic dehydrogenase (LDH). The oxidation of NADH was monitored by following the decrease of absorbance at 340 nm (∈340 = 6.22 cm^-1 mM^-1) using a HP8452 spectrophotometer. […] Assays were initiated with 10 nM of FL-CHK1. Ki values were determined by measuring initial enzyme activity in the presence of varying concentrations of test compounds. The data were analyzed using Enzyme Kinetic and Kaleidagraph software.

Where [4] appears, read: mouse, in vivo, ip, 25 mg/kg, pH 2.3.
Setting [5] is: mouse, in vivo, po, 50 mg/kg, pH 2.3.
[6] abbreviates: intravitreal, 1 mg/ml, vehicle PEG/water 70:30.
Where [7] appears, read: Table 1, compound concentration 1 µM, read-out: FGF-P* (% inhibition).
The mark [8] stands for this setting: intravitreal, 10 mg/ml, vehicle PEG/water 70:30.
Setting [9] is: Table 1, compound concentration 1 µM, read-out: Lck-P* (% inhibition).
Setting [10] is: + albumin, read-out: HUVEC + albumin IC50.
[11] abbreviates: Table 5, 1 µM, bold values spectrophotometric assay, non-bolded DELFIA assay (bold not visible here).
Setting [12] is: intravitreal, 5 mg/ml, vehicle PEG/water 70:30.

Sequence of LCK tyrosine kinase (P06239 223-509 P223M/C224D): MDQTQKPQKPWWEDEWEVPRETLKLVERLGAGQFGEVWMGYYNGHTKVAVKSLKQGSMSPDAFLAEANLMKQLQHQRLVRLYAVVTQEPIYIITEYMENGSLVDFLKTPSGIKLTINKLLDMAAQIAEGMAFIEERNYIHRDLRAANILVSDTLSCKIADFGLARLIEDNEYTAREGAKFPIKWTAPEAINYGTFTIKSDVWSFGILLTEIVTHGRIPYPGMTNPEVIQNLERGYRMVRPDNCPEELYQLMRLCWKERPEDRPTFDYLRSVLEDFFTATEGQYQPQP

On to `O=C(c1cccc(NC(=O)c2cccc3[nH]ccc23)c1)c1ccc2c(/C=C/c3ccccn3)n[nH]c2c1` [41 (d)], for which the AUCleast reads like this: under setting [4], 10324 ng·h/mL; under setting [5], 7072 ng·h/mL. The T1/2 reads like this: under setting [4], 2.8 h; under setting [5], 1.5 h. In addition, the % Inhibition (as a rule, the change of the read-out against control, counted positive when it falls) in data set [1] (setting [6]) came out at 0%.
With `Cc1ccc2cc(NC(=O)c3ccccc3Sc3ccc4c(/C=C/c5ccccc5)n[nH]c4c3)ccc2n1` [Reference Example 38(a), 6-[2-(2-Methylquinol-6-ylcarbamoyl)phenylsulfanyl]-3-E-(2-styryl)-1H-indazole], the values for the inhibition at 1 µM at human FGF-R1 (setting [7]) and on LCK tyrosine kinase (setting [9]) were 74% and 77%, respectively. Moreover, the “Initial Evaluation” value is “+ (one plus being detectable regression judged to be approximately 25 percent or less)” in data set [1] (setting [6]) and “+++ (three pluses give to retinas with near total regression (approximately 75% or greater))” in [1] (setting [8]).
Consider `CCn1nc(C)cc1C(=O)Nc1cccc(C(=O)c2ccc3c(/C=C/c4ccccn4)n[nH]c3c2)c1.Cl` [Example 59(a), 6-[3-((1-Ethyl-3-methyl-1H-pyrazol-5-yl)carboxamido)benzoyl]-3-E-[2-(pyridin-2-yl)ethenyl]-1H-indazole hydrochloride], for which the T1/2 (mouse, in vivo, po, 25 mg/kg) was 1.6 h. For the same compound, the “% Inhibition” value in [1] (1 mg/ml, vehicle 0.5%CMC) is reported as 19%; in [1] (10 mg/ml, vehicle C.5%CMC), 41%.
As for `Cc1cnc(C(=O)Nc2cccc(C(=O)c3ccc4c(/C=C/c5ccccc5)n[nH]c4c3)c2)s1` [19(d), 5-Methyl-thiazole-2-carboxylic acid [3-(3-styryl-1H-indazole-6-carbonyl)-phenyl]-amide], the inhibition (commonly the change of the read-out against control, counted positive when it falls) at 1 µM was 39% on human FGF-R1 (setting [7]), 15% in data set [3] (setting [11]) and 33% on LCK tyrosine kinase (setting [9]). Moreover, the results for the IC50 in data set [2] (setting [10]) and in [2] (read-out: HUVEC IC50) were 34 nM and 6.8 nM, respectively.
Regarding `CC(=O)Nc1cccc(C(=O)c2ccc3c(/C=C/c4ccccc4)n[nH]c3c2)c1` [19(a), N-[3-(3-Styryl-1H-indazole-6-carbonyl)-phenyl]-acetamide], the inhibition at 1 µM at human FGF-R1 (setting [7]) stood at 92%; in data set [3] (setting [11]), 18%; at LCK tyrosine kinase (setting [9]), 16%. Moreover, in data set [2] (read-out: HUVEC IC50), the IC50 (usually the concentration needed to halve the response being measured) turned out to be 44 nM.
For the compound `Cc1ccc2cc(NC(=O)c3ccccc3Sc3ccc4c(/C=C/c5ccccn5)n[nH]c4c3)ccc2n1` [Reference Example 33(b)], the inhibition at 1 µM at human FGF-R1 (setting [7]) amounted to 77%. The T1/2 is, setting by setting: (IP, 25 mg/kg, vehicle PEG400:H2O pH 2.3 60:40) 3.0 h; (PO, 50 mg/kg, vehicle PEG400:H2O pH 2.3 60:40) 3.0 h. Further, the “Initial Evaluation” value in data set [1] (setting [8]) is reported as “++ (two pluses being judged to be approximately 25-75 % regression)”. The AUC (in general, the area under the concentration-time curve, a measure of exposure) in “in vivo” (ip, 25 mg/kg) came to 11200 ng·h/mL; in “in vivo” (po, 50 mg/kg), 3920 ng·h/mL.
For `O=C(Nc1cccc(C(=O)c2ccc3c(/C=N/n4cccc4)n[nH]c3c2)c1)c1ccccc1` [Example 45(b), 6-(3-Benzamidobenzoyl)-3-E-[N-(pyrrol-1-yl)iminomethyl]-1H-indazole], the “% remain (HLM, 2 h)” value in “in vitro” (human, microsomes, 5 µM) was 97%. For the same compound, the “% Inhibition” value in data set [1] (setting [6]) was 25%. Besides, in data set [1] (setting [8]), the “% Inhibition” value came out at 60% and the “Initial Evaluation” value is listed as “++ (two pluses being judged to be approximately 25-75 % regression)”.
In the case of `CC(=O)c1cccc(C(=O)Nc2cccc(N(C)c3ccc4c(/C=C/c5ccc6c(c5)OCO6)n[nH]c4c3)c2)c1` [16(e), 3-Acetyl-N-(3-{[3-(2-benzo[1,3]dioxol-5-yl-vinyl)-1H-indazol-6-yl]-methyl-amino}-phenyl)-benzamide], the inhibition at 1 µM came to 59% at human FGF-R1 (setting [7]) and 8% at LCK tyrosine kinase (setting [9]). Besides, the IC50 in [2] (setting [10]) amounted to 106 nM; in [2] (read-out: HUVEC IC50), 4.9 nM. In the data set “in vitro” (human liver microsomes, 5 µM test compound, 37 °C, read-out: % remain (HLM, 2 h)), the remaining at 2 h, 5 µM came to 40%. In addition, the “% Inhibition” value in [1] (setting [6]) was 16%; in [1] (setting [12]), 36% and 37%; in data set [1] (setting [8]) it was 54%. Moreover, the “Initial Evaluation” value was “++ (two pluses being judged to be approximately 25-75 % regression)” in data set [1] (setting [12]) and “+++ (three pluses give to retinas with near total regression (approximately 75% or greater))” in data set [1] (setting [8]).
As to `Brc1cccc(Oc2ccc3c(/C=C/c4ccccc4)n[nH]c3c2)c1` [8(d), 6-(3-Bromo-phenoxy)-3-styryl-1H-indaxole], the inhibition at 1 µM in [3] was determined as 10%. The inhibition constant Ki (in general, a measure of affinity in units of concentration, obtained from inhibition or displacement) on human CHK1 (FL-CHK1) is 82 nM.
Regarding `Cc1cc(O)c(Cl)cc1-c1ccc2c(-c3nc4ccccc4[nH]3)n[nH]c2c1` [24(c), 4-[3-(1-H-Benzoimidazol-2-yl)-1-B-indazol-6-yl]-2-chloro-5-methyl-phenol], the inhibition at 1 µM on human FGF-R1 (read-out: FGF* (% inhibition)) was 89%; in data set [3], 94%; at LCK tyrosine kinase (read-out: Lck* (% inhibition)) it was 93%.
In the case of `Cc1cccc(C(=O)Nc2cccc(N(C)c3ccc4c(/C=C/c5ccc6c(c5)OCO6)n[nH]c4c3)c2)c1` [16(b), N-(3-{[3-(2-Benzo[1,3]dioxol-5-yl-vinyl)-1H-indazol-6-yl]-methyl-amino}-phenyl)-3-methyl-benzamide], the inhibition at 1 µM at human FGF-R1 (setting [7]) was 73%; in [3] (setting [11]), 52%; on LCK tyrosine kinase (setting [9]), 22%. For the same compound, the IC50 was 140 nM in data set [2] (setting [10]) and 4.7 nM in data set [2] (read-out: HUVEC IC50).
For `O=C(c1cccc(NC(=O)c2cccc3[nH]ccc23)c1)c1ccc2c(/C=C/c3ccccn3)n[nH]c2c1` [Reference Example 41(d), 6-[3-(indol-4-ylcarboxamido)benzoyl]-3-E-[2-(pyridin-2-yl)ethenyl]-1H-indazole], the IC50 in data set [2] (setting [10]) is 6.4 nM. Also, the IC50 in [2] (read-out: HUVEC IC50) was found to be 0.9 nM. Moreover, in data set [1] (setting [8]), the “% Inhibition” value was 59% and the “Initial Evaluation” value is on record as “+++ (three pluses give to retinas with near total regression (approximately 75% or greater))”.
